Results from ChEMBL document CHEMBL4396870, “Pharmacological Chaperones for the Treatment of α-Mannosidosis” (J Med Chem, 2019).
Active and inactive are the calls of the source. The calls are words filed in the database; no cut-off is given here.

Columns and labels:
Aspergillus niger = test: Inhibition of Aspergillus niger amyloglucosidase assessed as residual hydrolytic activity up to 2 mM after 10 to 30 mins by spectrophotometric analysis
Alpha-mannosidase = target: T1, Alpha-mannosidase (Canavalia ensiformis, UniProt C0HJB3); test: Inhibition of jack bean Lysosomal alpha-mannosidase assessed as residual hydrolytic activity after 10 to 30 mins by spectrophotometric analysis
T1 sequence (C0HJB3 whole entry): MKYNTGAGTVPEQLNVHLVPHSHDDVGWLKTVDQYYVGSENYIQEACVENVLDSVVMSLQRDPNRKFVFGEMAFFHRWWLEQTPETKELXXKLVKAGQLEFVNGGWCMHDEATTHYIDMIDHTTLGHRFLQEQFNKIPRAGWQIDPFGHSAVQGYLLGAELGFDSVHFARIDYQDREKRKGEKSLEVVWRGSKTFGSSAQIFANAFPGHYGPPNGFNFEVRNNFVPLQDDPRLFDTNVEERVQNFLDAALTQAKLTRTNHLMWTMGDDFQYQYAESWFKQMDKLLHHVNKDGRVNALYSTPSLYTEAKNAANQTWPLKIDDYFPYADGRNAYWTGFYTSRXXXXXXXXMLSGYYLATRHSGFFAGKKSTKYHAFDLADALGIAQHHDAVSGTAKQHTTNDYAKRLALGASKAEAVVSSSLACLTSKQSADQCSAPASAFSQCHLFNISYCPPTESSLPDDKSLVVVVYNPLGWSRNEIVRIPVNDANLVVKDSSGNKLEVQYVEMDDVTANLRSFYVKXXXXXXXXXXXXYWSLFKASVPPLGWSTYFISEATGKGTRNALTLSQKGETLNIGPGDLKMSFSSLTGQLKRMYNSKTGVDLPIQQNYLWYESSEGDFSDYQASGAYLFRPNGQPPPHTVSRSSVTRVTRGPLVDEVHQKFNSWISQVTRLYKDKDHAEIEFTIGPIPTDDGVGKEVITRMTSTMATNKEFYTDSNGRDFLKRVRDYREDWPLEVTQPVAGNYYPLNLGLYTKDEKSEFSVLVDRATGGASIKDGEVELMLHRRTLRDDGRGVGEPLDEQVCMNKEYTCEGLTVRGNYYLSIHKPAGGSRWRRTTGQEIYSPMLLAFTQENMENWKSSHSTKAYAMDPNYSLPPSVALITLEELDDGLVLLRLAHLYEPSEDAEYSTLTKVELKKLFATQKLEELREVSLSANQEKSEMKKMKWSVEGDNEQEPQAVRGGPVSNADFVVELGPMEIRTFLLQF

[1] = target: Alpha-galactosidase (Coffea arabica) (UniProt Q42656); test: Inhibition of green coffee alpha-galactosidase assessed as residual hydrolytic activity up to 2 mM after 10 to 30 mins by spectrophotometric analysis
Alpha-galactosidase (Coffea arabica), sequence (Q42656 16-378 limits assumed): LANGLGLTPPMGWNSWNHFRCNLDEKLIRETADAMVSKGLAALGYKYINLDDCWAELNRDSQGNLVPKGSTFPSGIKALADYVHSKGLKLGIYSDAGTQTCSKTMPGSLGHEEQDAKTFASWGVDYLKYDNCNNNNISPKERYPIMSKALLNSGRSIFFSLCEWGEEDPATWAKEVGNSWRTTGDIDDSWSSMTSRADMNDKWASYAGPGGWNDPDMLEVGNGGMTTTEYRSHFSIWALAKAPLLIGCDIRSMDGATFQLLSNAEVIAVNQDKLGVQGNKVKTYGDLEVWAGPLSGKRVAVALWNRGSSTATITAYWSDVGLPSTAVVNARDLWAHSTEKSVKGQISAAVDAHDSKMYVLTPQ

Saccharomyces cerevisiae = test: Inhibition of yeast isomaltase assessed as residual hydrolytic activity up to 2 mM after 10 to 30 mins by spectrophotometric analysis
[2] = target: T2, Lysosomal alpha-mannosidase (Homo sapiens) (UniProt O00754); test: Chaperone activity at Lysosomal alpha-mannosidase in wild-type human fibroblasts assessed as increase in Lysosomal alpha-mannosidase activity using 4-methylumbelliferone alpha-D-mannopyranoside as a reporter substrate incubated for 4 days by fluorescence method
T2 sequence (whole entry): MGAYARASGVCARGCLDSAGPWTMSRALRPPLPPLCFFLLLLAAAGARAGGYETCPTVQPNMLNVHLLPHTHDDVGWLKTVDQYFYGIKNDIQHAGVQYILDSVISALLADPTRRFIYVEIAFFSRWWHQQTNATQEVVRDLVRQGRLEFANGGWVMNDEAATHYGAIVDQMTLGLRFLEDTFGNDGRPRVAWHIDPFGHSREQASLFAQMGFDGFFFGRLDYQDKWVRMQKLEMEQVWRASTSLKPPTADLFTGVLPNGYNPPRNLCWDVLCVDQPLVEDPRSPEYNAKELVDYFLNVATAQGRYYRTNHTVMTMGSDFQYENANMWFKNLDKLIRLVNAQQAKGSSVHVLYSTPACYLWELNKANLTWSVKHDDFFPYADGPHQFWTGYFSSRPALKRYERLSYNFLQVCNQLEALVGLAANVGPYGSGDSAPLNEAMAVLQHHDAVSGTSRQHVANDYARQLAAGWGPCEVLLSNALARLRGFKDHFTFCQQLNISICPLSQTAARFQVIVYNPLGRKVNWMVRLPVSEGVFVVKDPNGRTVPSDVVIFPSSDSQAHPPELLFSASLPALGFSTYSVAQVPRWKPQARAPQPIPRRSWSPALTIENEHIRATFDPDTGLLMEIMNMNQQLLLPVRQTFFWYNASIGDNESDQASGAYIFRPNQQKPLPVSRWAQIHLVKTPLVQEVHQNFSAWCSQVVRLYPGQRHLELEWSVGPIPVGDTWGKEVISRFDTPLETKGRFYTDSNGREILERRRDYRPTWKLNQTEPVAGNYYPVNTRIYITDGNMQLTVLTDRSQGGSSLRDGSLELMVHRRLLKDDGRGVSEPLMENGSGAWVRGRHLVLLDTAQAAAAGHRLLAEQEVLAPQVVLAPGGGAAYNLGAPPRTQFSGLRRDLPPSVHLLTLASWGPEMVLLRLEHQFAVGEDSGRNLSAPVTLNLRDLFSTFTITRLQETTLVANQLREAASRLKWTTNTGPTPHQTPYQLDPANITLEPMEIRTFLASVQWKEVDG

[3] = target: T2, Lysosomal alpha-mannosidase (Homo sapiens); test: Chaperone activity at Lysosomal alpha-mannosidase in wild-type human fibroblasts assessed as increase in Lysosomal alpha-mannosidase activity at 0.2 to 20 uM using 4-methylumbelliferone alpha-D-mannopyranoside as a reporter substrate incubated for 4 days by fluorescence method relative to control
[4] = target: T3, Lysosomal alpha-mannosidase (Homo sapiens, UniProt O00754); test: Inhibition of Lysosomal alpha-mannosidase in wild-type human fibroblast cell lysates using 4-methylumbelliferone alpha-D-mannopyranoside as a reporter substrate incubated for 60 mins by fluorescence method; assay type: subcellular, Lysate
T3 sequence (O00754 whole entry): T2 sequence (whole entry)

Row | inhibition (Aspergillus niger) | Ki (Alpha-mannosidase) | inhibition [1] | inhibition (Saccharomyces cerevisiae) | Activity [2] | fold change (FC) [3] | IC50 [4] | Structure (SMILES)
1 | inactive | 0.5 to 50 µM | inactive | inactive | Dose-dependent effect | 1.3 to 2.4 | 2.2 µM | COC[C@H]1O[C@@H]2O[C@H]3[C@H](OC)[C@@H](OC)[C@@H](O[C@H]4[C@H](OC)[C@@H](OC)[C@@H](O[C@H]5[C@H](OC)[C@@H](OC)[C@@H](O[C@H]6[C@H](OC)[C@@H](OC)[C@@H](O[C@H]7[C@H](OC)[C@@H](OC)[C@@H](O[C@H]8[C@H](OC)[C@@H](OC)[C@@H](O[C@H]1[C@H](OC)[C@H]2OC)O[C@@H]8COC)O[C@@H]7COC)O[C@@H]6COC)O[C@@H]5COCc1cn(CCCCCCN[C@@H]2[C@@H](O)[C@@H](O)[C@H](O)[C@H]5COC(=O)N52)nn1)O[C@@H]4COC)O[C@@H]3COC
2 | inactive | 0.5 to 50 µM | inactive | inactive | Dose-dependent effect | 1.3 to 2.4 | 30.7 µM | CC(C)(C)OC(=O)NCCCCCCCCCN[C@@H]1[C@@H](O)[C@@H](O)[C@H](O)[C@H]2COC(=O)N21
3 | – | 3.2 µM | – | – | Dose-dependent effect | 1.3 to 2.4 | 26.8 µM | CCCCCCCCN[C@@H]1[C@@H](O)[C@@H](O)[C@H](O)[C@H]2COC(=O)N21
4 | inactive | 0.5 to 50 µM | inactive | inactive | Dose-dependent effect | 1.3 to 2.4 | 17.3 µM | CCCc1cn(CCCCCCN[C@@H]2[C@@H](O)[C@@H](O)[C@H](O)[C@H]3COC(=O)N32)nn1

The next lines start with the compound.

Row | Structure (SMILES) | inhibition (Aspergillus niger) | Ki (Alpha-mannosidase) | inhibition [1] | inhibition (Saccharomyces cerevisiae) | Activity [2] | fold change (FC) [3] | IC50 [4]
5 | [N-]=[N+]=NCCCCCCCCCN[C@@H]1[C@@H](O)[C@@H](O)[C@H](O)[C@H]2COC(=O)N21 | inactive | 0.5 to 50 µM | inactive | inactive | Dose-dependent effect | 1.3 to 2.4 | 19.3 µM
6 | CO[C@@H]1[C@@H](OC)[C@H]2O[C@H]3[C@H](OC)[C@@H](OC)[C@@H](O[C@H]4[C@H](OC)[C@@H](OC)[C@@H](O[C@H]5[C@H](OC)[C@@H](OC)[C@@H](O[C@H]6[C@H](OC)[C@@H](OC)[C@@H](O[C@H]7[C@H](OC)[C@@H](OC)[C@@H](O[C@H]8[C@H](OC)[C@@H](OC)[C@@H](O[C@@H]1[C@@H](COCc1cn(CCCCCCN[C@@H]9[C@@H](O)[C@@H](O)[C@H](O)[C@H]%10COC(=O)N%109)nn1)O2)O[C@@H]8COCc1cn(CCCCCCN[C@@H]2[C@@H](O)[C@@H](O)[C@H](O)[C@H]8COC(=O)N82)nn1)O[C@@H]7COCc1cn(CCCCCCN[C@@H]2[C@@H](O)[C@@H](O)[C@H](O)[C@H]7COC(=O)N72)nn1)O[C@@H]6COCc1cn(CCCCCCN[C@@H]2[C@@H](O)[C@@H](O)[C@H](O)[C@H]6COC(=O)N62)nn1)O[C@@H]5COCc1cn(CCCCCCN[C@@H]2[C@@H](O)[C@@H](O)[C@H](O)[C@H]5COC(=O)N52)nn1)O[C@@H]4COCc1cn(CCCCCCN[C@@H]2[C@@H](O)[C@@H](O)[C@H](O)[C@H]4COC(=O)N42)nn1)O[C@@H]3COCc1cn(CCCCCCN[C@@H]2[C@@H](O)[C@@H](O)[C@H](O)[C@H]3COC(=O)N32)nn1 | inactive | 0.5 to 50 µM | inactive | inactive | – | – | 0.44 µM
7 | [N-]=[N+]=NCCCCCCN[C@@H]1[C@@H](O)[C@@H](O)[C@H](O)[C@H]2COC(=O)N21 | inactive | 0.5 to 50 µM | inactive | inactive | Dose-dependent effect | 1.3 to 2.4 | 116 µM
